Patent publication US10308656B2, “Small molecule inhibitors of Ku70/80 and uses thereof” (ARIZONA BOARD OF REGENTS ON BEHALF OF THE UNIVERSITY OF …, priority 2015, dated 2019)
Entries after “also recorded” stand apart in the source; their conditions may differ.

Columns and labels:
[1] = target: DNA-PKCS kinase (Ku-dependent activation) (Homo sapiens, UniProt P12956+P13010); test: DNA-PKCS kinase activity assay, Ku70/80-dependent in vitro phosphorylation of a p53-based peptide substrate; format: biochemical; conditions: for Impairment of Ku-dependent activation of DNA-PKCS: in vitro
Text: To further validate the Ku-inhibitory activity of Compound L, experiments examined its effects on Ku-dependent activation of the DNA-PKCS kinase. […] It is, however, a potent co-factor for the activation of other NHEJ enzymes, including DNA-PKCS (see, G. C. Smith, et al., Genes Dev., 13 (1999), pp. 916-934). It was therefore reasoned that disruption of the Ku-DNA interaction by Compound L should also diminish DNA-PKCS kinase activity. The DNA-PKCS kinase has multiple known downstream targets, including p53, Artemis, and DNA-PKCS itself (see, E. Weterings, et al., Cell Res., 18 (2008), pp. 114-124; G. C. Smith, et al., Genes Dev., 13 (1999), pp. 916-934). It is at present not entirely clear which targets are critical for the overall DNA repair response, but it is evident that the kinase domain of DNA-PKCS is indispensable. Experiments therefore quantified the kinase activity of a purified preparation of the DNA-PKCS protein in the presence of different concentrations of Compound L. Experiments measured the phosphorylation of a p53-based peptide substrate as an arbitrary reporter of DNA-PKCS kinase activity. The obtained in vitro DNA-PKCS kinase activities were subsequently normalized and plotted as a function of compound L concentration (FIG. 4A). Experiments observed a sharp dose-dependent inhibition of DNA-PKCS kinase activity. […] Therefore, both primary (EMSA) and secondary (DNA-PKCS activity) assays for the Ku-inhibitory potential of Compound L indicate an IC50 value in the lower micro-molar range.
This example compares the in vitro activity of several structural analogs of Compound L. This assay measures the effect of each compound on the in vitro activity of the DNA-PKCS kinase.

[2] = target: Ku70/80 heterodimer-DNA interaction (Homo sapiens, UniProt P12956+P13010); test: Electrophoretic Mobility Shift Assay (EMSA) of Ku70/80 binding to a DNA substrate; conditions: for Disruption of Ku70/80-DNA interaction (disappearance of the band shift): compound at 100 μM in EMSA reaction
Text: Next, the described ‘protomol’ was utilized as a guide to screen small molecule databases for potential inhibitors. Hits were sorted from highest to lowest docking scores and nine compounds were ultimately chosen for biological activity screening (see, Table 1). These compounds were commercially obtained and designated with a letter (A through H, and L). For initial activity screening experiments utilized an Electrophoretic Mobility Shift Assay (EMSA), in which a radioactively labeled artificial DNA substrate was incubated with a preparation of purified Ku70/80 protein, followed by non-denaturing gel electrophoresis. Interaction of Ku70/80 with DNA caused a measurable shift of the DNA band. […] Compounds C and L were further investigated for their ability to disrupt the Ku70/80 DNA interaction as well as Ku-dependent activation of the DNA-PKcs kinase.
Therefore, a two orders of magnitude range of serial dilutions of the compounds was added to the previously described EMSA reactions. Inhibition of Ku-DNA interaction in a straight forward dose-dependent manner by compound L alone was observed (FIG. 3B). In order to quantify the relative efficiency of Ku-DNA binding for each dose of Compound L, the intensity of the Ku-DNA bands in the EMSA assay was measured and normalized those values to a number between 0 and 100, where the value 0 represents a reaction where no Ku70/80 was present and the value 100 represents a reaction where no inhibitor was added. These normalized values were subsequently plotted against the corresponding concentrations of Compound L (FIG. 3B). A logarithmic trend line was added and equations were obtained to describe the dose-response curves of Compound L in the EMSA assay. […] IC50 values in this range are generally considered to be a viable starting point for lead-finding exploits.

[3] = tested on: SF-767 glioblastoma cells; test: Radiation sensitization / cytotoxicity by MTS assay in glioblastoma cells; format: cell-based, human; conditions: for Sensitization to radiation therapy (RT): human glioblastoma multiforme (GBM) cells
Experimental: (§1) Consequently, this substance could have an effect on the efficiency of overall repair of DSBs. In order to examine this potential, experiments tested Compound L for its ability to potentiate the effects of ionizing radiation on two human cell lines: the glioblastoma cell line SF-767 (FIG. 5A), and an hTERT immortalized prostate epithelial (PrEC) cell line (see, R. Berger, et al., Cancer Res., 64 (2004), pp. 8867-8875) (FIG. 5B). Cultured cells were treated with either the compound as a single modality, ionizing radiation as a single modality or with a regimen of concurrent radiation and compound. Cell viability was measured after a six day recovery period by standard MTS assay and normalized to the untreated control (no compound or radiation). FIG. 5 presents the observed effects of each treatment modality in terms of percentage non-viable cells. The effects are plotted as a function of the compound's concentration in the culture medium.
(§2) As expected, experiments observed a clear, dose-dependent increase in non-viable cell population with increasing concentrations of Compound L (FIG. 5, red columns). This reflects the fundamental cytotoxicity of the compound under the chosen experimental conditions. In both cell lines, toxicity of Compound L stayed low (below 5% non-viability) up to 25 μM, after which an exponential increase in cytotoxicity was observed. […] In order to exclude the possibility that this phenomenon was caused by mere additive effects, experiments calculated the sum of the effects of the single modalities (FIG. 5, purple columns) and compared the obtained values with the effects of the combination treatments. By definition, synergism is present when the effect of the combination therapy (green columns) exceeds the sum of the effects of the single modalities (purple columns). In SF-767 cells, synergism was most clearly observed between 20 and 30 μM (FIG. 5A) and in immortalized PrEC cells synergism was present in the 20-35 μM range (FIG. 5B).
(§3) This is done by means of a standard MTS assay, measuring survival of human glioblastoma (SF767) or immortalized prostate epithelial (PrEC) cells 7 days after treatment with compounds and radiation therapy. […] The radiation-sensitizing potential of Compound L and JV761 is attributable to the ability of these compounds to suppress the activity of Ku70/80 in vivo.

[4] = Tolerability and toxicity after bolus IP injection with two week follow-up; format: in vivo; conditions: mice
[5] = tested on: DNA double strand break (DSB) repair in glioblastoma cells (SF767); test: DSB repair after radiation by γ-H2AX phosphorylation; format: cell-based, human; conditions: 25 μM, post radiation
Experimental: This repair process is dependent on active Ku70/80 and the suppression of Ku-dependent DSB repair is further proof that Compound L inhibits Ku70/80 activity. The relative amount of DSBs is measured by counting the relative intensity of a canonical DSB marker: γ-H2AX.
Relative number of DSBs was measured by quantifying and normalizing γ-H2AX phosphorylation. […] Measured in human glioblastoma cells (SF767). Error bars represent standard error.

[6] = tested on: DNA-PKCS SER2056 autophosphorylation in SF-767 cells; test: DNA-PKCS autophosphorylation assay (Western blot) after etoposide-induced DSBs; format: cell-based, human
Text: In order to further examine the effects of Compound L on Ku-dependent activation of the DNA-PKCS kinase in vivo, experiments also exposed cultures of the human glioblastoma cell line SF-767 to increasing concentrations of Compound L. Upon induction of DSBs by etoposide, experiments quantified the levels of DNA-PKCS autophosphorylation at the SER2056 residue by means of Western blot analysis (FIG. 4B).

[7] = Radiation sensitization / cytotoxicity by MTS assay in glioblastoma cells; format: cell-based, human; conditions: human, SF-767 glioblastoma cells; SF-767, up to 25 μM, MTS after six day recovery; read-out: Non-viability (toxicity of compound as single modality)
Experimental: as §1, §2, §3

[8] = tested on: hTERT immortalized prostate epithelial (PrEC) cells; test: Radiation sensitization / cytotoxicity by MTS assay in prostate epithelial cells; format: cell-based, human; conditions: immortalized PrEC, concurrent compound and radiation, FIG. 5B
Experimental: as §1
(§4) As expected, experiments observed a clear, dose-dependent increase in non-viable cell population with increasing concentrations of Compound L (FIG. 5, red columns). […] In order to exclude the possibility that this phenomenon was caused by mere additive effects, experiments calculated the sum of the effects of the single modalities (FIG. 5, purple columns) and compared the obtained values with the effects of the combination treatments. […]

[9] = as above; format: cell-based, human; conditions: human, hTERT immortalized prostate epithelial (PrEC) cells; PrEC, up to 25 μM, MTS after six day recovery; read-out: Non-viability (toxicity of compound as single modality)
Experimental: as §1, §4

[10] = Pharmacokinetic profile after bolus IP injection, plasma levels by LC-MS; format: in vivo, nude mice; conditions: bolus IP 1, 3 or 5 mg/kg
Experimental: A bolus IP injection of Compound L was given at either 1, 3, or 5 mg/kg and plasma levels of Compound L were determined by LC-MS.

Chain of Ku70/80 heterodimer-DNA interaction (P12956 whole entry): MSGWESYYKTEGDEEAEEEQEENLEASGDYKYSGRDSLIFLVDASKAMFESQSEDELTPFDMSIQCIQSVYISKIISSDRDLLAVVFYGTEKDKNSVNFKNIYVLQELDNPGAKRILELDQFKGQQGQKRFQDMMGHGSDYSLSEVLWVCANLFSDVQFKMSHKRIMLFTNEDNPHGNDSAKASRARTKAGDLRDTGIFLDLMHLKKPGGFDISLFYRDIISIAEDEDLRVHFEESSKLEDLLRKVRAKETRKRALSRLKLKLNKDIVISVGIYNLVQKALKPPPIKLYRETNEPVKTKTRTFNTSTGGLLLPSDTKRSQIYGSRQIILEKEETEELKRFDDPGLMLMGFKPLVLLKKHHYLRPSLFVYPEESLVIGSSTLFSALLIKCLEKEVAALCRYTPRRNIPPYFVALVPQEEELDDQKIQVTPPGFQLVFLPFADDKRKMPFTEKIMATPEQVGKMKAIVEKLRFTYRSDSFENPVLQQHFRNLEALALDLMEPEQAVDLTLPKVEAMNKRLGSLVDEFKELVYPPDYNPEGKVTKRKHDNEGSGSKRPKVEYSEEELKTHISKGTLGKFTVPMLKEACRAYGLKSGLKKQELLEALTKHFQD
Chain of Ku70/80 heterodimer-DNA interaction (P13010 whole entry): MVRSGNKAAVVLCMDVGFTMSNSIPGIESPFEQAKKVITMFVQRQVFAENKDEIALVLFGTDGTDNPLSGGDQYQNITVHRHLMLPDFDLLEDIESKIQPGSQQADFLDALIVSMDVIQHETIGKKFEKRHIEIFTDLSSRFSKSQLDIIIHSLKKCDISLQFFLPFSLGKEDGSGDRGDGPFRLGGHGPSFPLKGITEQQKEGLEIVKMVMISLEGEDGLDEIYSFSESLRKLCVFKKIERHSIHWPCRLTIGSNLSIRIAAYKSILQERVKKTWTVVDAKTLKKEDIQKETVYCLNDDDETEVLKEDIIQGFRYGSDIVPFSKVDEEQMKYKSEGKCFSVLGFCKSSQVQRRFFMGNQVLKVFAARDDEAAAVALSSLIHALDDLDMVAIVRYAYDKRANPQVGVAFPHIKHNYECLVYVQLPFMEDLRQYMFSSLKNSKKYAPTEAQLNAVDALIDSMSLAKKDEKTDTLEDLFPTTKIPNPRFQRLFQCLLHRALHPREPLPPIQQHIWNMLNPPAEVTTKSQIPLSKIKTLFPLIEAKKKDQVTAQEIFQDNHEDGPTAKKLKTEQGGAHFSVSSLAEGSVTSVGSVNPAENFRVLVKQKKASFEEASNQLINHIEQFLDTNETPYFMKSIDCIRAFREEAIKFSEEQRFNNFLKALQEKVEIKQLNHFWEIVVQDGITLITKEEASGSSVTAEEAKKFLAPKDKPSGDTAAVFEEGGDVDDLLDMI
Chain of DNA-PKCS kinase (Ku-dependent activation) (P12956 whole entry): as the sequence (P12956 whole entry) above
Chain of DNA-PKCS kinase (Ku-dependent activation) (P13010 whole entry): as the sequence (P13010 whole entry) above

Row | Structure (SMILES) | Impairment of Ku-dependent activation of DNA-PKCS [1] | Disruption of Ku70/80-DNA interaction (disappearance of the band shift) [2] | Sensitization to radiation therapy (RT) [3] | IC50 ([1]; p53-based peptide substrate, logarithmic trend line) [nM] | Histopathology and comprehensive blood panels ([4]; after two weeks) | Signs of toxicity ([4]; bolus IP, acute and two week follow-up) | Tolerability ([4]; single bolus IP injection up to 5 mg/kg) | DSB repair kinetics (γ-H2AX) [5] | IC50 ([2]; EMSA titration, logarithmic trend line, read-out: IC50, dose needed to inhibit 50% of maximal Ku-DNA binding) [µM] | Total DNA-PKCS level ([6]; Western blot) | DNA-PKCS autophosphorylation at the SER2056 residue ([6]; increasing doses, etoposide) | Concentration range of synergistic radiation-sensitization ([3]; human cancer cells, 4Gy radiation, MTS 7 days after treatment, FIG. 9) [µM] | cytotoxicity at 6 days [7] [%] | Concentration range of synergism with radiation [8] [µM] | cytotoxicity at 6 days [9] [%] | Plasma levels versus dose ([10]; LC-MS) | half-life ([10]; mouse, plasma, nude mice) [min]
1 | COc1ccc(N2CCN(Cc3nc(N)nc(Nc4cccc(C)c4)n3)CC2)cc1 [Compound C, 4-[[4-(4-methoxyphenyl)piperazin-1-yl]methyl]-6-(m-tolyimino)-5H-1,3,5-triazin-2-amine] | capable of disrupting the binding of Ku to DNA as well as the activation of DNA-PKCS | disruption of the Ku70/80-DNA interaction; also recorded: screen positive for disruption of Ku70/80-DNA interaction; also recorded: capable of disrupting the binding of Ku to DNA | synergistically sensitize | – | – | – | – | – | – | – | – | – | – | – | – | – | –
2 | COc1ccc(CCNc2ncc3c(=O)n(-c4cccc(F)c4)c(=O)[nH]c3n2)cc1OC [Compound L, 7-[[2-(3,4-dimethoxyphenyl)ethyl]amino]-3-(3-fluorophenyl)pyrimido[4,5-d] pyrimidine-2,4(1H,3H)-dione] | capable of disrupting the binding of Ku to DNA as well as the activation of DNA-PKCS | disruption of the Ku70/80-DNA interaction; also recorded: screen positive for disruption of Ku70/80-DNA interaction; also recorded: capable of disrupting the binding of Ku to DNA | synergistically sensitize | 2500 | no abnormalities; also recorded: normal | did not reveal any acute toxicity; also recorded: did not reveal signs of toxicity | well tolerated | significantly delayed | 3.5 | not suppressed | sharp decline | 20 to 30 | < 5 | 20 to 35 | < 5 | directly proportional to dose | ~90
